Consider 33 compounds from patent US6949542B2, “Dihydro-benzo[b][1,4]diazepin-2-one derivatives” (Hoffman-La Roche Inc., priority 2002, dated 2005).

Molecules are shown by their SMILES.

As to `CCOc1cc2c(cc1C(F)(F)F)NC(=O)CC(c1cccc(-c3ccnc(CC)c3)c1)=N2` [Example 159, 4-[3-(2-Ethyl-pyridin-4-yl)-phenyl]-7-ethoxy-8-trifluoromethyl-1,3-dihydro-benzo[b][1,4]diazepin-2-one], the melting point (commonly the temperature of the solid-liquid transition) was 244 °C.
The figure for `Cc1cc2c(cc1Cl)NC(=O)CC(c1cccc(-c3ccc(C4CC4)nc3)c1)=N2` [Example 161, 8-Chloro-4-[3-(6-cyclopropyl-pyridin-3-yl)-phenyl]-7-methyl-1,3-dihydro-benzo[b][1,4]diazepin-2-one] is 198 to 199 °C.
With `CCOc1ccc2c(c1)N=C(c1cccc(-c3cccnc3)c1)CC(=O)N2` [Example 162, 7-Ethoxy-4-(3-pyridin-3-yl-phenyl)-1,3-dihydro-benzo[b][1,4]diazepin-2-one], the melting point lay within 166 to 169 °C.
Then `CCOc1ccc2c(c1)N=C(c1cccc(-c3ccncc3)c1)CC(=O)N2` [Example 163, 7-Ethoxy-4-(3-pyridin-4-yl-phenyl)-1,3-dihydro-benzo[b][1,4]diazepin-2-one], with 180 to 185 °C.
`O=C1CC(c2cccc(-c3ccccn3)c2)=Nc2ccc(C#Cc3ccccc3)cc2N1` [Example 164, 8-Phenylethynyl-4-(3-pyridin-2-yl-phenyl)-1,3-dihydro-benzo[b][1,4]diazepin-2-one] yielded a melting point of 242 °C.
`O=C1CC(c2cccc(-c3ccccn3)c2)=Nc2ccc(C#Cc3ccc(F)cc3)cc2N1` [Example 165, 8-(4-Fluoro-phenylethynyl)-4-(3-pyridin-2-yl-phenyl)-1,3-dihydro-benzo[b][1,4]diazepin-2-one] registered a melting point of 249 °C.
For the compound `O=C1CC(c2cccc(-c3ccc(C4CC4)nc3)c2)=Nc2cc(OCC(F)(F)F)c(C(F)(F)F)cc2N1` [Example 166, 4-[3-(6-Cyclopropyl-pyridin-3-yl)-phenyl]-7-(2,2,2-trifluoro-ethoxy)-8-trifluoromethyl-1,3-dihydro-benzo[b][1,4]diazepin-2-one], the melting point was in the range of 213 to 214 °C.
In turn, `Cc1cc2c(cc1C(F)(F)F)NC(=O)CC(c1cccc(-c3ccc(C4CC4)nc3)c1)=N2` [Example 167, 4-[3-(6-Cyclopropyl-pyridin-3-yl)-phenyl]-7-methyl-8-trifluoromethyl-1,3-dihydro-benzo[b][1,4]diazepin-2-one] gave a melting point of 220 to 221 °C.
As for `COc1ccc(-c2cccc(C3=Nc4cc(C)c(C(F)(F)F)cc4NC(=O)C3)c2)cn1` [Example 168, 4-[3-(6-Methoxy-pyridin-3-yl)-phenyl]-7-methyl-8-trifluoromethyl-1,3-dihydro-benzo[b][1,4]diazepin-2-one], the melting point fell in the range of 219 to 224 °C.
In turn, `COc1ccc(-c2cccc(C3=Nc4cc(OCC(F)(F)F)ccc4NC(=O)C3)c2)cn1` [Example 169, 4-[3-(6-Methoxy-pyridin-3-yl)-phenyl]-7-(2,2,2-trifluoro-ethoxy)-1,3-dihydro-benzo[b][1,4]diazepin-2-one] came in with a melting point of 186 °C.
`COc1ccc(-c2cccc(C3=Nc4cc(OCC(F)(F)F)c(C(F)(F)F)cc4NC(=O)C3)c2)cn1` [Example 170, 4-[3-(6-Methoxy-pyridin-3-yl)-phenyl]-7-(2,2,2-trifluoro-ethoxy)-8-trifluoromethyl-1,3-dihydro-benzo[b][1,4]diazepin-2-one] had a melting point of 220 to 225 °C.
`O=C1CC(c2cccc(-c3cccnc3)c2)=Nc2ccc(C#Cc3ccc(F)cc3)cc2N1` [Example 174, 8-(4-Fluoro-phenylethynyl)-4-(3-pyridin-3-yl-phenyl)-1,3-dihydro-benzo[b][1,4]diazepin-2-one] displayed a melting point of 228 to 230 °C.
The compound `O=C1CC(c2cccc(-c3cccnc3)c2)=Nc2ccc(C#Cc3ccccc3)cc2N1` [Example 175, 8-Phenylethynyl-4-(3-pyridin-3-yl-phenyl)-1,3-dihydro-benzo[b][1,4]diazepin-2-one] yielded a melting point of 241 °C.
In the case of `O=C1CC(c2cccc(-c3ccc(C4CC4)nc3)c2)=Nc2cc(OCC(F)(F)F)ccc2N1` [Example 176, 4-[3-(6-Cyclopropyl-pyridin-3-yl)-phenyl]-7-(2,2,2-trifluoro-ethoxy)-1,3-dihydro-benzo[b][1,4]diazepin-2-one], the melting point lay in the range of 178 to 180 °C.
`CC(C)c1ccc(-c2cccc(C3=Nc4ccc(C(F)(F)F)cc4NC(=O)C3)c2)cn1` [Example 177, 4-[3-(6-Isopropyl-pyridin-3-yl)-phenyl]-8-trifluoromethyl-1,3-dihydro-benzo[b][1,4]diazepin-2-one]: the melting point came out at 194 °C.
The figure for `CC(C)c1ccc(-c2cccc(C3=Nc4cc(OCC(F)(F)F)c(C(F)(F)F)cc4NC(=O)C3)c2)cn1` [Example 178, 4-[3-(6-Isopropyl-pyridin-3-yl)-phenyl]-7-(2,2,2-trifluoro-ethoxy)-8-trifluoromethyl-1,3-dihydro-benzo[b][1,4]diazepin-2-one] is 197 °C.
With `Cc1cc2c(cc1Cl)NC(=O)CC(c1cccc(-c3ccc(C(C)C)nc3)c1)=N2` [Example 179, 8-Chloro-4-[3-(6-isopropyl-pyridin-3-yl)-phenyl]-7-methyl-1,3-dihydro-benzo[b][1,4]diazepin-2-one], the melting point is 190 °C.
`Cc1cc2c(cc1C(F)(F)F)NC(=O)CC(c1cccc(-c3ccc(C(C)C)nc3)c1)=N2` [Example 180, 4-[3-(6-Isopropyl-pyridin-3-yl)-phenyl]-7-methyl-8-trifluoromethyl-1,3-dihydro-benzo[b][1,4]diazepin-2-one] registered a melting point of 199 °C.
The compound `CCOc1cc2c(cc1Cl)NC(=O)CC(c1cccc(-c3cccnc3)c1)=N2` [Example 181, 8-Chloro-7-ethoxy-4-(3-pyridin-3-yl-phenyl)-1,3-dihydro-benzo[b][1,4]diazepin-2-one] yielded a melting point of 210 °C.
With `CCOc1cc2c(cc1Cl)NC(=O)CC(c1cccc(-c3ccnc(C)c3)c1)=N2` [Example 182, 8-Chloro-7-ethoxy-4-[3-(2-methyl-pyridin-4-yl)-phenyl]-1,3-dihydro-benzo[b][1,4]diazepin-2-one], the melting point came out at 185 °C.
Then `O=C1CC(c2cccc(-c3cccnc3)c2)=Nc2cc(Cl)c(C(F)(F)F)cc2N1` [Example 183, 7-Chloro-4-(3-pyridin-3-yl-phenyl)-8-trifluoromethyl-1,3-dihydro-benzo[b][1,4]diazepin-2-one], with 226 to 227 °C.
Then `O=C1CC(c2cccc(-c3cccnc3)c2)=Nc2ccc(OC(F)(F)F)cc2N1` [Example 185, 4-(3-Pyridin-3-yl-phenyl)-8-trifluoromethoxy-1,3-dihydro-benzo[b][1,4]diazepin-2-one], with 207 °C.
The compound `O=C1CC(c2cccc(-c3cccnc3)c2)=Nc2cc(N3CCCC3)c(C(F)(F)F)cc2N1` [Example 187, 4-(3-Pyridin-3-yl-phenyl)-7-pyrrolidin-1-yl-8-trifluoromethyl-1,3-dihydro-benzo[b][1,4]diazepin-2-one] yielded a melting point of 219 to 221 °C.
Regarding `O=C1CC(c2cccc(-c3cccnc3)c2)=Nc2cc(N3CCOCC3)c(C(F)(F)F)cc2N1` [Example 188, 7-Morpholin-4-yl-4-(3-pyridin-3-yl-phenyl)-8-trifluoromethyl-1,3-dihydro-benzo[b][1,4]diazepin-2-one], the melting point was in the range of 198 to 201 °C.
Compound `CCc1ccc(-c2cccc(C3=Nc4cc(C)c(Cl)cc4NC(=O)C3)c2)cn1` [Example 189, 8-Chloro-4-[3-(6-ethyl-pyridin-3-yl)-phenyl]-7-methyl-1,3-dihydro-benzo[b][1,4]diazepin-2-one] showed a melting point of 182 to 185 °C.
The figure for `CCOc1cc2c(cc1C(F)(F)F)NC(=O)CC(c1cccc(-c3ccc(CC)nc3)c1)=N2` [Example 190, 7-Ethoxy-4-[3-(6-ethyl-pyridin-3-yl)-phenyl]-8-trifluoromethyl-1,3-dihydro-benzo[b][1,4]diazepin-2-one] is 218 to 219 °C.
The figure for `CCc1ccc(-c2cccc(C3=Nc4ccc(C(F)(F)F)cc4NC(=O)C3)c2)cn1` [Example 191, 4-[3-(6-Ethyl-pyridin-3-yl)-phenyl]-8-trifluoromethyl-1,3-dihydro-benzo[b][1,4]diazepin-2-one] is 211 °C; for `CCc1ccc(-c2cccc(C3=Nc4cc(OCC(F)(F)F)c(C(F)(F)F)cc4NC(=O)C3)c2)cn1` [Example 193, 4-[3-(6-Ethyl-pyridin-3-yl)-phenyl]-7-(2,2,2-trifluoro-ethoxy)-8-trifluoromethyl-1,3-dihydro-benzo[b][1,4]diazepin-2-one] it is 191 °C.
In turn, `O=C1CC(c2cccc(-c3cccnc3)c2)=Nc2cc(OCC3CC3)c(C(F)(F)F)cc2N1` [Example 194, 7-Cyclopropylmethoxy-4-(3-pyridin-3-yl-phenyl)-8-trifluoromethyl-1,3-dihydro-benzo[b][1,4]diazepin-2-one] gave a melting point of 197 °C.
The figure for `O=C1CC(c2cccc(-c3ccc(C4CC4)nc3)c2)=Nc2cc(OCC3CC3)c(C(F)(F)F)cc2N1` [Example 196, 7-Cyclopropylmethoxy-4-[3-(6-cyclopropyl-pyridin-3-yl)-phenyl]-8-trifluoromethyl-1,3-dihydro-benzo[b][1,4]diazepin-2-one] is 223 °C; for `Cc1cc2c(cc1C(F)(F)F)NC(=O)CC(c1cccc(-c3ccnc(C#N)c3)c1)=N2` [Example 199, 4-[3-(8-Methyl-4-oxo-7-trifluoromethyl-4,5-dihydro-3H-benzo[b][1,4]diazepin-2-yl)-phenyl]-pyridine-2-carbonitrile] it is 205 to 211 °C; for `O=C1CC(c2cccc(-c3cccnc3)c2)=Nc2cc(OCC(F)(F)F)c(Cl)cc2N1` [Example 202, 8-Chloro-4-(3-pyridin-3-yl-phenyl)-7-(2,2,2-trifluoro-ethoxy)-1,3-dihydro-benzo[b][1,4]diazepin-2-one] it is 203 to 204 °C.
The figure for `N#Cc1cc(-c2cccc(C3=Nc4cc(OCC(F)(F)F)c(Cl)cc4NC(=O)C3)c2)ccn1` [Example 203, 4-{3-[7-Chloro-4-oxo-8-(2,2,2-trifluoro-ethoxy)-4,5-dihydro-3H-benzo[b][1,4]diazepin-2-yl]-phenyl}-pyridine-2-carbonitrile] is 224 to 225 °C.
